Test results reported in patent publication US10682370B2, “Topical antiviral composition containing a local anesthetic and method of making the same” (priority 2013, dated 2020).
Structures can show the parent of a compound that is named as a salt.

Tests used:
[1] = test system: HSV-1; details: in vitro; cited from earlier work
[2] = Accelerated stability of sorivudine/lidocaine cream formulas stored in 40° C./75% RH; assay type: physicochemical
Description: In the above Table 3, the six (6)-month accelerated stability assay data's for both formulations, i.e. Example 8 and Example 9 (containing BHT) were stable.

[3] = administered concurrently with 5-FU; cited from earlier work
[4] = acidic environment, accelerated test
[5] = neutral environment, 6 month accelerated test

Assay of sorivudine remaining [2, 5] [%] | SMILES | Selectivity ratio for the inhibitory activity against HSV-1 [1] | Change of assay (in words) [2, 4] | Change of assay (in words) [2, 5] | Toxicity on concurrent administration with 5-fluorouracil (5-FU) [3]
 | Nc1nc2c(ncn2COCCO)c(=O)[nH]1 [Acyclovir, acyclovir] | about 2000 |  |  | 
 | CCN(CC)CC(=O)Nc1c(C)cccc1C [lidocaine HCl, 2-(diethylamino)-N-(2,6-dimethylphenyl)-acetamide] |  | no change | almost no change | 
66 | O=c1[nH]c(=O)n([C@@H]2O[C@H](CO)[C@@H](O)[C@@H]2O)cc1/C=C/Br [sorivudine] |  | no change |  | major toxicity (myelosuppression)
